Measured values reported in patent publication US11079383B2, “Diagnosis and monitoring treatment of prostate cancer” (THE GENERAL HOSPITAL CORPORATION, priority 2012, dated 2021).
“Also recorded” adds a separate entry of the source.

What was measured:
LNCaP cells = test: Multiparameter single cell immunofluorescence assay for AR signaling (PSA/PSMA) in LNCaP cells; type: cell-based, human; settings: androgen-starved LNCaP cells (3 days 10% charcoal-stripped serum) treated with 1 nM R1881
From the text: To achieve multiparameter single cell analysis of AR activity, an automated fluorescence microscopy scanning platform was adapted to distinctly and specifically measure four fluorescent emission spectra simultaneously. Secondary fluorophores and optical band pass filters were selected to avoid “cross-talk” between the multiple fluorescent signals that are closely located on the electromagnetic spectrum, while maximizing signal intensity. The disclosed assay for quantitative measurement of signal intensity profiles for cells stained with antibodies against PSA and PSMA was developed using a model cell system (LNCaP). […]
(§1) Immunofluorescence Staining and Automated Fluorescence Microscopy To establish and validate the immunofluorescence single cell AR signature, LNCaP cells were cultured in media containing 10% charcoal-stripped serum for 3 days followed by treatment with 1 nM R1881 or 10 μM bicalutamide for 24 hours. […] An automated upright fluorescence microscopy scanning system (BioView) fitted with a precision motorized stage and xenon arc lamp (Lumen 2000, Prior Scientific) was used to comprehensively image each CTC-chip under 10× magnification in seven z-planes. Due to inherent auto fluorescence of biological samples that can interfere with the specificity of stains in the green spectra, the negative control marker, CD45, was paired with the Alexa Fluor 488 secondary antibody. […]

[1] = test system: CTCs from patients with CRPC; test: AR signaling phenotypes in CTCs from CRPC patients before and after second line hormonal therapy (HBCTC-Chip); type: in vivo, human; settings: for Effect of second line hormonal treatment on CTC numbers and AR phenotypes: CRPC patients, ketoconazole N=1, bicalutamide N=2, abiraterone acetate N=13
Method: (§2) Patients and Clinical Specimens Patients with metastatic prostate cancer receiving treatment at the Massachusetts General Hospital (MGH) were recruited according to an institutional review board (IRB) approved protocol. A total of 21 prostate cancer patients donated 10-20 mL of blood on one or more occasions for CTC analysis. A total of 21 male patients with no known diagnosis of cancer were recruited during routine visits to the MGH outpatient internal medicine clinic according to a separate IRB approved protocol. CTC capture using the ^HBCTC-Chip was performed as described (Stott S L, et al. Proc Natl Acad Sci USA 2010; 107: 18392-7), with anti-EpCAM mediated capture of cells, followed by combined staining with anti-PSA, anti-PSMA, and anti-CD45 antibodies (described in detail below).
(§3) HBCTC-Chip Blood Processing All specimens were collected into Vacutainer (Becton-Dickson) tubes containing the anticoagulant EDTA and were processed through the ^HBCTC-Chip within 6 hours of blood draw. Samples were run on the previously described microfluidic processing machine (Stott S L, et al. Proc Natl Acad Sci USA 2010; 107: 18392-7). Briefly, a 5 mL aliquot of blood was placed in an airtight conical tube on a rocker assembly, and 2-4 mL of blood were pneumatically driven through the chip at a flow rate of 1-1.5 mL/hour. Following processing, the ^HBCTC-Chip was flushed with 2.5 mL of PBS at 2.5 mL/hour to remove nonspecifically bound cells. Isolated CTCs were then subjected to immunofluorescence staining, as described below.
Immunofluorescence Staining and Automated Fluorescence Microscopy To establish and validate the immunofluorescence single cell AR signature, LNCaP cells were cultured in media containing 10% charcoal-stripped serum for 3 days followed by treatment with 1 nM R1881 or 10 μM bicalutamide for 24 hours. Once the assays were validated in cultured cells, they were applied to cells spiked into whole blood and isolated on the CTC-Chip, to healthy donor blood samples to establish the signal intensity threshold for detection, and ultimately on primary patient samples processed through the Chip. Cells captured on the ^HBCTC-chip were fixed with 4% formaldehyde and permeabilized with 1% NP-40 in PBS. Immunofluorescence staining was performed using a rabbit polyclonal anti-PSA antibody (DAKO), a mouse monoclonal IgG1 anti-PSMA antibody (J591; N. Bander), and a mouse monoclonal IgG2a anti-CD45 antibody (Abcam), followed by appropriately matched secondary antibodies conjugated with DyLight 649 (Jackson ImmunoResearch), Alexa Fluor 555 (Invitrogen), and Alexa Fluor 488 (Invitrogen). Nuclei were stained with DAPI. An automated upright fluorescence microscopy scanning system (BioView) fitted with a precision motorized stage and xenon arc lamp (Lumen 2000, Prior Scientific) was used to comprehensively image each CTC-chip under 10× magnification in seven z-planes. Due to inherent auto fluorescence of biological samples that can interfere with the specificity of stains in the green spectra, the negative control marker, CD45, was paired with the Alexa Fluor 488 secondary antibody. This choice reduced the sensitivity of the staining assay (potentially more false negatives), but lessened the risk of false positives through natural autofluorescence. Conversely, PSA, the highest affinity antibody tested (and subsequently strongest fluorescent signal) was placed in the Cy5 channel, where the quantum efficiency of traditional monochrome CCD sensors is reduced. To successfully achieve distinct, non-overlapping fluorescent signals in four colors while maximizing the fluorescent intensity output, modified Magnetron sputter-coated filter sets were selected for the Cy3 and Cy5 spectra (Chroma). Additional filter sets for the DAPI and FITC channel were used and exposure times were optimized. All samples were subsequently imaged at predetermined exposure times. […]

metastatic CRPC = settings: men with metastatic CRPC who have previously received chemotherapy; cited from earlier work
[2] = test system: CTCs from patients with castration-sensitive prostate cancer; test: AR signaling phenotypes in CTCs from patients with castration-sensitive metastatic prostate cancer before and after ADT (HBCTC-Chip); type: in vivo, human; settings: for Change of CTC AR signaling phenotype after ADT: treatment-naive castration-sensitive metastatic prostate cancer patients with detectable CTCs
Method: as §2
as §3, with “Following processing, the ^HBCTC-Chip was flushed with 2.5 mL of PBS at 2.5 mL/hour to remove nonspecifically bound cells. Isolated CTCs were then subjected to immunofluorescence staining, as described below.” left out
as §1

In the case of `C[C@]1(O)CC[C@H]2[C@@H]3CCC4=CC(=O)CCC4=C3C=C[C@@]21C` [R1881], the “AR signaling phenotype (PSA/PSMA signal intensity profile) over time” value (LNCaP cells) is reported as “time-dependent progression from an initial “AR-off” (PSA−/PSMA+) to an intermediate “AR-mixed” (PSA+/PSMA+) phenotype, and finally to an “AR-on” (PSA+/PSMA−) pattern”.

For `CC(=O)O[C@H]1CC[C@@]2(C)C(=CC[C@@H]3[C@@H]2CC[C@]2(C)C(c4cccnc4)=CC[C@@H]32)C1` [abiraterone acetate], the “CRPC patients with a stable percentage of AR-on CTCs after therapy” value ([1]; 6 of 13 patients) was 46%, the “Effect of second line hormonal treatment on CTC numbers and AR phenotypes” value [1] was “varying effects on CTC numbers and AR phenotypes” and the “Change in proportion of PSA+/PSMA− AR-on CTCs in an individual CRPC patient” value ([1]; single patients, after initiation of therapy (FIG. 4A, FIG. 4C)) was “a decrease in the proportion of PSA+/PSMA− “AR-on” CTCs; also recorded: Increase in the proportion of PSA+/PSMA− “AR-on” CTCs”. For the same molecule, the “CRPC patients with ≥50% decline in the percentage of AR-on (PSA+/PSMA−) CTCs” value ([1]; within 2-5 weeks of therapy, 4 of 13 patients) was 31%, the “CRPC patients with ≥50% increase in the percentage of AR-on CTCs” value ([1]; within the first 2-5 weeks of therapy, 3 of 13 patients) was 23% and the Overall survival (metastatic CRPC) was “increases overall survival”.

In the case of `CC(=O)N1CCN(c2ccc(OCC3COC(Cn4ccnc4)(c4ccc(Cl)cc4Cl)O3)cc2)CC1` (centres unmarked) [ketoconazole], the “Effect of second line hormonal treatment on CTC numbers and AR phenotypes” value [1] is reported as “varying effects on CTC numbers and AR phenotypes”.

In the case of `CCNC(=O)[C@@H]1CCCN1C(=O)[C@H](CCCNC(=N)N)NC(=O)[C@H](CC(C)C)NC(=O)[C@@H](CC(C)C)NC(=O)[C@H](Cc1ccc(O)cc1)NC(=O)[C@H](CO)NC(=O)[C@H](Cc1c[nH]c2ccccc12)NC(=O)[C@H](Cc1c[nH]cn1)NC(=O)[C@@H]1CCC(=O)N1` [leuprolide], the “Change of CTC AR signaling phenotype after ADT” value [2] is reported as “transformation of CTCs from the “AR-on” (PSA+/PSMA−) phenotype to the “AR-off” (PSA−/PSMA+) phenotype”, the “Change of CTC AR signaling phenotype after ADT” value ([2]; listed as ADT) is reported as “transformation of the majority of CTCs from the “AR-on” to the “AR-off” phenotype within one month” and the “Presence of CTCs after initiation of ADT” value ([2]; treatment-naive metastatic prostate cancer patients with detectable CTCs) is reported as “complete disappearance of CTCs by 3 months”.
